Test results: patent publication US20050197402A1 (priority 2004, published 2005)

Assay: Modulated differential scanning calorimetry (MDSC/DSC), thermal stability / decomposition
Assay type: physicochemical
Conditions: for onset of decomposition: MDSC data
Text: Differential Scanning Calorimetry (DSC) measures heat flow as a function of time or temperature and is used to study material transformation whether they be physical, such as phase changes, or chemical, such as decomposition. There are several parameters that can be obtained from a DSC thermogram. In the present work, the focus was on the onset temperature, the temperature of the peak minimum, and the peak width. DSC information is useful in understanding the purity and nature of material. For example, when a pure crystalline substance melts, the melting point is sharp. In DSC, that sharpness is shown by a narrow melting peak in the thermogram. If there are impurities or defects in the crystalline nature, the melting takes place at lower temperatures and over a larger range of temperatures. In DSC, the impurities are shown by a lower onset temperature and peak temperature, and a broader peak in the thermogram. When there are discrete impurities, they can melt at their melting points. In DSC, discrete impurities can be shown by additional peaks in the thermogram.
While a decomposition curve is usually broader and can be more complicated, some of the same phenomena are seen as with melting. Impurities and defects will cause broader and lower temperature peaks. Discrete impurities can show their own decomposition peaks.
These were made at slightly different stoichiometries. The onset temperature, the temperature at peak minimum, and the peak width are labeled.

[1] = modulated DSC thermogram, spray-dried polymorph of PMC2, K:Mg ratio less than 4.0

Compound	onset of decomposition	endothermic peak for decomposition: onset temperature [1]	endothermic peak for decomposition: peak minimum temperature [1]	endothermic peak for decomposition: peak width [1]	DSC decomposition behaviour (in words) (spray-dried sample in a vented pan, compared to sample dried in an oven or at room temperature)
O=C([O-])CC(O)(CC(=O)[O-])C(=O)[O-].O=C([O-])CC(O)(CC(=O)[O-])C(=O)[O-].[K+].[K+].[K+].[K+].[Mg+2] [PMC2, potassium magnesium citrate]	approximately 310 °C	greater than 320 °C	greater than 327 °C	less than 9 °C	–
O=C([O-])CC(O)(CC(=O)[O-])C(=O)[O-].O=C([O-])CC(O)(CC(=O)[O-])C(=O)[O-].[K+].[K+].[K+].[K+].[Mg+2] [PMC, potassium magnesium citrate]	–	–	–	–	decomposed at a much lower temperature and with a broader decomposition peak
O=C([O-])CC(O)(CC(=O)[O-])C(=O)[O-].[K+].[K+].[K+] [potassium citrate, reference compound]	260 °C	–	–	–	–
magnesium citrate [reference compound]	250 °C	–	–	–	–
